Values of other authors in US10085951B2, “Curcuminoid formulations and related methods of treatment” (DESIGNS FOR HEALTH, INC., priority 2014, dated 2018).

For `COc1cc(/C=C/C(=O)CC(=O)/C=C/c2ccc(O)c(OC)c2)ccc1O` [curcumin, 1,6-heptadiene-3,5-dione1,7-bis (4-hydroxy-3-methoxyphenyl)-(1E,6E)], the “Solubility in ethanol, dimethylsulfoxide and acetone” value is listed as “soluble” and the “Solubility in water and ether” value is listed as “practically insoluble”.
